33 compounds from patent US20250025443A1, “COMPOUNDS AND METHODS FOR TREATING CORONA VIRUSES” (CLEAR CREEK BIO, INC., priority 2021, published 2025) can be followed below.

One assay concerns the target SARS-CoV-2 Papain-Like Protease (PLpro) (Severe acute respiratory syndrome coronavirus 2 (2019-nCoV) (SARS-CoV-2), UniProt P0DTD1). Nature of the assay: biochemical. The note with it: PLpro enzymatic fluorescence assay; class symbols; read-out: PLpro IC50.
In general, IC50 refers to the point on the concentration scale where inhibition reaches its midpoint. `C=Cc1cc(C2(NC(=O)c3cc(O[C@H](C)[C@@H]4CCN4C)ccc3C)CC2)c2cccnc2c1` [Compound 758, 2-Methyl-5-((R)-1-((S)-1-methylazetidin-2-yl)ethoxy)-N-(1-(7-vinylquinolin-5-yl)cyclopropyl)benzamide]: the IC50 was under 100 nM. Still for that read-out and setting: to `Cc1ccc(OC[C@@H]2CCN2C)cc1C(=O)NC1(c2cc(NCC(F)(F)F)cc3ncccc23)CC1` [Compound 759, (S)-2-Methyl-5-((1-methylazetidin-2-yl)methoxy)-N-(1-(7-((2,2,2-trifluoroethyl)amino)quinolin-5-yl)cyclopropyl)benzamide] belongs under 100 nM. On the same count and under the same terms, to `C=Cc1cc(C2(NC(=O)c3cc(OC[C@@H]4CCN4C)c(NS(C)(=O)=O)cc3C)CC2)c2cccnc2c1` [Compound 760, (S)-2-Methyl-5-((1-methylazetidin-2-yl)methoxy)-4-(methylsulfonamido)-N-(1-(7-vinylquinolin-5-yl)cyclopropyl)benzamide] belongs under 100 nM. For the compound `COc1cc(C2(NC(=O)c3cc(OC[C@@H]4CCN4C)ccc3C)CC2)c2ncccc2c1` [Compound 761, (S)-N-(1-(6-Methoxyquinolin-8-yl)cyclopropyl)-2-methyl-5-((1-methylazetidin-2-yl)methoxy)benzamide], the IC50 lay within 100 to 1000 nM.

With `Cc1ccc(OC[C@@H]2CCN2C)cc1C(=O)NC1(c2cc(-c3ccc(C(C)O)s3)cc3ncccc23)CC1` (stereo partly drawn) [Compound 762, N-(1-(7-(5-(1-Hydroxyethyl)thiophen-2-yl)quinolin-5-yl)cyclopropyl)-2-methyl-5-(((S)-1-methylazetidin-2-yl)methoxy)benzamide], the concentration for half-maximal inhibition (IC50) is under 100 nM. Turning to `CNc1cc(C2(NC(=O)c3cc(OC[C@@H]4CCN4C)ccc3C)CC2)c2cccnc2c1` [Compound 763, (S)-2-Methyl-N-(1-(7-(methylamino)quinolin-5-yl)cyclopropyl)-5-((1-methylazetidin-2-yl)methoxy)benzamide], the IC50 is under 100 nM. Same read-out and setting: to `Cc1ncc(-c2cc(C3(NC(=O)c4cc(OC[C@@H]5CCN5C)ccc4C)CC3)c3cccnc3c2)s1` [Compound 764, (S)-2-Methyl-5-((1-methylazetidin-2-yl)methoxy)-N-(1-(7-(2-methylthiazol-5-yl)quinolin-5-yl)cyclopropyl)benzamide] belongs under 100 nM. Still for that read-out and setting: the value for `Cc1ccc(OC[C@@H]2CCN2C)cc1C(=O)NC1(c2cc(-c3ccc(C(=O)N4CCCC4)s3)cc3ncccc23)CC1` [Compound 767, (S)-2-Methyl-5-((1-methylazetidin-2-yl)methoxy)-N-(1-(7-(5-(pyrrolidine-1-carbonyl)thiophen-2-yl)quinolin-5-yl)cyclopropyl)benzamide] was over 5000 nM; that for `CCCN(CCC)c1cc(C2(NC(=O)c3cc(OC[C@@H]4CCN4C)ccc3C)CC2)c2cccnc2c1` [Compound 771, (S)—N-(1-(7-(Dipropylamino)quinolin-5-yl)cyclopropyl)-2-methyl-5-((1-methylazetidin-2-yl)methoxy)benzamide] was under 100 nM; that for `COc1cc(C2(NC(=O)c3cc(OC[C@H]4CC5(CC5)CN4C)ccc3C)CC2)c2cccnc2c1` [Compound 774, (R)—N-(1-(7-Methoxyquinolin-5-yl)cyclopropyl)-2-methyl-5-((5-methyl-5-azaspiro[2.4]heptan-6-yl)methoxy)benzamide] was under 100 nM. Take `COc1cc(C2(NC(=O)c3cc(OC[C@@H]4CC[C@@H]5CN(C(=O)OC(C)(C)C)CCN54)ccc3C)CC2)c2cccnc2c1` [Compound 775]: the IC50 is under 100 nM.

Regarding `COc1cc(C2(NC(=O)c3cc(O[C@H]4CC[C@@H]5CN(C(=O)OC(C)(C)C)CCN5C4)ccc3C)CC2)c2cccnc2c1` [Compound 776], the IC50 is under 100 nM. On to `Cc1ccc(OC[C@@H]2CCN2C)cc1C(=O)NC1(c2cc(-c3ccc(C(C)N4CCCC4)s3)cc3ncccc23)CC1` (stereo partly drawn) [Compound 780, 2-Methyl-5-(((S)-1-methylazetidin-2-yl)methoxy)-N-(1-(7-(5-(1-(pyrrolidin-1-yl)ethyl)thiophen-2-yl)quinolin-5-yl)cyclopropyl)benzamide], for which the IC50 is under 100 nM. Still for that read-out and setting: the value for `Cc1ccc(OC[C@@H]2CCN2C)cc1C(=O)NC1(c2cc(N(C)CC(F)(F)F)cc3ncccc23)CC1` [Compound 781, (S)-2-Methyl-N-(1-(7-(methyl(2,2,2-trifluoroethyl)amino)quinolin-5-yl)cyclopropyl)-5-((1-methylazetidin-2-yl)methoxy)benzamide] was under 100 nM; that for `[2H]C([2H])([2H])N1CC[C@H]1COc1ccc(C)c(C(=O)NC2(c3cc(-c4cnc(C)o4)cc4ncccc34)CC2)c1` [Compound 782, (S)-2-Methyl-5-((1-(methyl-d3)azetidin-2-yl)methoxy)-N-(1-(7-(2-methyloxazol-5-yl)quinolin-5-yl)cyclopropyl)benzamide] was under 100 nM; that for `COc1cc(C2(NC(=O)c3cc(O[C@H]4CC[C@@H]5CN(C)CCN5C4)ccc3C)CC2)c2cccnc2c1` [Compound 783] was under 100 nM. On the same count and under the same terms, the value for `COc1cc(C2(NC(=O)c3cc(OC[C@@H]4CC[C@@H]5CN(C)CCN54)ccc3C)CC2)c2cccnc2c1` [Compound 784] was under 100 nM.

On to `C=Cc1cc2c(c(C3(NC(=O)c4cc(OC[C@@H]5CCN5C)ccc4C)CC3)c1)CCCN2` [Compound 785, (S)-2-Methyl-5-((1-methylazetidin-2-yl)methoxy)-N-(1-(7-vinyl-1,2,3,4-tetrahydroquinolin-5-yl)cyclopropyl)benzamide], for which the IC50 was under 100 nM. Same read-out and setting: the value for `Cc1ccc(OC[C@@H]2CCN2C)cc1C(=O)NC1(c2cc(OCC(C)(C)C)cc3ncccc23)CC1` [Compound 787, (S)-2-Methyl-5-((1-methylazetidin-2-yl)methoxy)-N-(1-(7-(neopentyloxy)quinolin-5-yl)cyclopropyl)benzamide] was under 100 nM. The same measure, in the same setting: the value for `[2H]C([2H])([2H])N1CC[C@H]1COc1ccc(C)c(C(=O)NC2(c3cc(C=C)cc4ncccc34)CC2)c1` [Compound 788, (S)-2-Methyl-5-((1-(methyl-d3)azetidin-2-yl)methoxy)-N-(1-(7-vinylquinolin-5-yl)cyclopropyl)benzamide] was under 100 nM; that for `COc1cc(C2(NC(=O)c3cc(OC[C@@H]4CC[C@@H]5CNCCN54)ccc3C)CC2)c2cccnc2c1` [Compound 789] was under 100 nM. On the same count and under the same terms, to `COc1cc(C2(NC(=O)c3cc(O[C@H]4CC[C@@H]5CNCCN5C4)ccc3C)CC2)c2cccnc2c1` [Compound 790] belongs under 100 nM; to `COc1cc(C2(NC(=O)c3cc(OC[C@@H]4CCN4C)ccc3F)CC2)c2ccc(C)nc2c1` [Compound 791, (S)-2-Fluoro-N-(1-(7-methoxy-2-methylquinolin-5-yl)cyclopropyl)-5-((1-methylazetidin-2-yl)methoxy)benzamide], 100 to 1000 nM. For the compound `Cc1ccc(OC[C@@H]2CCN2C)cc1C(=O)NC1(c2cc(-c3ccc(CN4CCOCC4)s3)cc3ncccc23)CC1` [Compound 793, (S)-2-Methyl-5-((1-methylazetidin-2-yl)methoxy)-N-(1-(7-(5-(morpholinomethyl)thiophen-2-yl)quinolin-5-yl)cyclopropyl)benzamide], the IC50 is under 100 nM. Still for that read-out and setting: the value for `[2H]C1([2H])C([2H])([2H])C1(NC(=O)c1cc(OC[C@@H]2CCN2C)ccc1C)c1cc(OC)cc2ncccc12` [Compound 794, (S)-N-(1-(7-Methoxyquinolin-5-yl)cyclopropyl-2,2,3,3-d4)-2-methyl-5-((1-methylazetidin-2-yl)methoxy)benzamide] was under 100 nM. Still for that read-out and setting: the value for `Cc1ccc(OC[C@@H]2CCN2C)cc1C(=O)NC1(c2cc(OCC(F)(F)F)cc3ncccc23)CC1` [Compound 795, (S)-2-Methyl-5-((1-methylazetidin-2-yl)methoxy)-N-(1-(7-(2,2,2-trifluoroethoxy)quinolin-5-yl)cyclopropyl)benzamide] was under 100 nM; that for `C=Cc1cc2c(c(C3(NC(=O)c4cc(OC[C@@H]5CCN5C)ccc4C)CC3)c1)CCCN2C` [Compound 796, (S)-2-Methyl-N-(1-(1-methyl-7-vinyl-1,2,3,4-tetrahydroquinolin-5-yl)cyclopropyl)-5-((1-methylazetidin-2-yl)methoxy)benzamide] was under 100 nM. The same measure, in the same setting: to `[2H]C([2H])(Oc1ccc(C)c(C(=O)NC2(c3cc(OC)cc4ncccc34)CC2)c1)[C@@H]1CCN1C` [Compound 797, (S)-N-(1-(7-Methoxyquinolin-5-yl)cyclopropyl)-2-methyl-5-((1-methylazetidin-2-yl)methoxy-d2)benzamide] belongs under 100 nM. With `COc1cc(C2(NC(=O)c3cc(OCC4Cc5ccccc5CN4C)ccc3C)CC2)c2cccnc2c1` (stereo not drawn) [Compound 799, N-(1-(7-Methoxyquinolin-5-yl)cyclopropyl)-2-methyl-5-((2-methyl-1,2,3,4-tetrahydroisoquinolin-3-yl)methoxy)benzamide], the IC50 was under 100 nM. On to `COc1cc(C2(NC(=O)c3cc(OCC4c5ccccc5CCN4C)ccc3C)CC2)c2cccnc2c1` (stereo not drawn) [Compound 801, N-(1-(7-Methoxyquinolin-5-yl)cyclopropyl)-2-methyl-5-((2-methyl-1,2,3,4-tetrahydroisoquinolin-1-yl)methoxy)benzamide], for which the half-maximal inhibitory concentration (IC50) is under 100 nM. Same read-out and setting: to `Cc1cc(C2(NC(=O)c3cc(OC[C@@H]4CCN4C)ccc3C)CC2)c2ccc(C)nc2c1` [Compound 802, (S)-N-(1-(2,7-Dimethylquinolin-5-yl)cyclopropyl)-2-methyl-5-((1-methylazetidin-2-yl)methoxy)benzamide] belongs under 100 nM.

The assay is the same for the next values; noted with them: SARS-CoV-2 PLpro enzymatic fluorescence assay; read-out: PLpro IC50.
Turning to `Cc1ccc(OC[C@@H]2CCN2C)cc1C(=O)NC1(c2cc(NS(C)(=O)=O)cc3ncccc23)CC1` [Compound 786, (S)-2-Methyl-5-((1-methylazetidin-2-yl)methoxy)-N-(1-(7-(methylsulfonamido)quinolin-5-yl)cyclopropyl)benzamide], the IC50 was under 100 nM. Same read-out and setting: to `C=Cc1cc(C2(NC(=O)c3cc(OC[C@@H]4CCN4C)c(F)cc3C)CC2)c2cccnc2c1` [Compound 800, (S)-4-Fluoro-2-methyl-5-((1-methylazetidin-2-yl)methoxy)-N-(1-(7-vinylquinolin-5-yl)cyclopropyl)benzamide] belongs under 100 nM.
